This experiment concerns the target T1, GPR158 (Homo sapiens, UniProt Q5T848).
T1 construct: expressed in transfected cells; host or cells: HEK293T/17
T1 sequence (Q5T848 24-1215): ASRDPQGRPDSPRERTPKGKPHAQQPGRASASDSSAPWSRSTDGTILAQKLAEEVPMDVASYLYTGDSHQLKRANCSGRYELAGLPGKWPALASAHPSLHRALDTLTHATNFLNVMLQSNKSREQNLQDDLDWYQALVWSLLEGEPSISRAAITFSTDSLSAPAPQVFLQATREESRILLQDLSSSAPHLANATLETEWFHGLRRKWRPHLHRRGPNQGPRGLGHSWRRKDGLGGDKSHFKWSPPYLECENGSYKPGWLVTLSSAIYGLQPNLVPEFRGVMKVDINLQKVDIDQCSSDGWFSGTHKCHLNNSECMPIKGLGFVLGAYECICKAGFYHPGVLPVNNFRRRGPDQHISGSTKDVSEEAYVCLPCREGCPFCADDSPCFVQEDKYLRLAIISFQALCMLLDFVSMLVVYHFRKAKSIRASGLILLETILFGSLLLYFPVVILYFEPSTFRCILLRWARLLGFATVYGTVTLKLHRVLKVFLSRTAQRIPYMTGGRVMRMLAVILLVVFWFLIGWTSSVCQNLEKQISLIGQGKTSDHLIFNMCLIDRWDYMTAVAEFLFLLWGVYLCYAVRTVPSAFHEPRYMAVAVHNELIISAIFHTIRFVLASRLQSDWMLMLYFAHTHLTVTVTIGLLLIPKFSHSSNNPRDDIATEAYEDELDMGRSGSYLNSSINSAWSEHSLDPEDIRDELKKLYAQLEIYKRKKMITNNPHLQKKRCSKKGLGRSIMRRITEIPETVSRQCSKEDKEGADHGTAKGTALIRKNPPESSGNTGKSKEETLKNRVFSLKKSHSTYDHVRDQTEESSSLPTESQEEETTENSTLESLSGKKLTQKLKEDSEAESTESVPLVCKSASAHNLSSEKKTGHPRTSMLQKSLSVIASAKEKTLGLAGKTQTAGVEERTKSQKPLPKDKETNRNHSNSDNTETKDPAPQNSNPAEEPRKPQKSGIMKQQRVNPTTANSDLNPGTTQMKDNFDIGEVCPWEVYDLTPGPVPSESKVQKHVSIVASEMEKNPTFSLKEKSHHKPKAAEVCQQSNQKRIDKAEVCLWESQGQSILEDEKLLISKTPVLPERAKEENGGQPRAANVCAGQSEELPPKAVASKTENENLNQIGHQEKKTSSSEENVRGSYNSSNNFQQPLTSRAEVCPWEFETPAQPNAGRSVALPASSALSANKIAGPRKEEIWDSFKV
T1 sequence (P49802 1-495 partner): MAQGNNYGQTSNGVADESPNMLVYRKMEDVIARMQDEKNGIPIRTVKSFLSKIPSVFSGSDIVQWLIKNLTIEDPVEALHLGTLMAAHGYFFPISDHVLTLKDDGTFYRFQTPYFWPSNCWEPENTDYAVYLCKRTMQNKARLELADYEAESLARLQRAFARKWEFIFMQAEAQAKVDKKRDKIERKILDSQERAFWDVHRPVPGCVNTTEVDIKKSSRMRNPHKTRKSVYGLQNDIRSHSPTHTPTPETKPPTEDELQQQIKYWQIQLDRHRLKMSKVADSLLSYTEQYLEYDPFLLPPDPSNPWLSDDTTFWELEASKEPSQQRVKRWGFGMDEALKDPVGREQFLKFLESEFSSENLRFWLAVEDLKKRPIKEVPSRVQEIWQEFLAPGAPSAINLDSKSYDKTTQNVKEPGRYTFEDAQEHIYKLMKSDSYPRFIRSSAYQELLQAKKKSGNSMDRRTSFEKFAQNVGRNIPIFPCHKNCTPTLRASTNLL
T1 sequence (O14775 1-395 partner): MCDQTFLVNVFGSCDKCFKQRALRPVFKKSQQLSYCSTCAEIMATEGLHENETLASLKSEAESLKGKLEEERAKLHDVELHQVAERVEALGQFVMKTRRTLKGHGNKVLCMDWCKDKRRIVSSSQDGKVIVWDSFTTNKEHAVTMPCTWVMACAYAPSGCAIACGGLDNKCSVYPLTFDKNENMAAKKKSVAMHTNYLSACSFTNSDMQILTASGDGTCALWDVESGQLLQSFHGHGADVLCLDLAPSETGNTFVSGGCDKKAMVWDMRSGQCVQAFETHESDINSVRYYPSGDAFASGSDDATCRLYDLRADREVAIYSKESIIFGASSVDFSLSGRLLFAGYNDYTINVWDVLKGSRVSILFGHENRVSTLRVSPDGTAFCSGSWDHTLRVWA
Description: cADDIS fluorescence-based cAMP assay, HEK293T/17 cells. To be noted: 500 μM Gly, 15 min, forskolin; GPR158-RGS7/Gβ5, HEK293T/17. The class given is cell-based. Here is the method: B. Effect of Gly on cAMP levels measured using CADDIS assay in HEK293T/17 cells (Gly conc. 500 μM). Binding of Gly to Cache domain of GPR158 blocks the GAP activity of GPR158-RGS7/Gβ5 complex on Gαo, resulting in lowering of CAMP levels. Data shown here represent the normalized fluorescence intensity upon Gly treatment (Mean±SEM from 3 independent experiments, Unpaired t-test, **p=0.0016)
In an effort to study the modulatory effects of Gly on CAMP through GPR158, the inventors took advantage of a fluorescence-based cAMP sensor cADDIS (Montana molecular) which involves Bacmam virus-based transduction of sensor into the cells (FIG. 17A).
Briefly, HEK293T/17 cells were co-transfected with plasmids for GPR158, RGS7 and Gβ5 (150 μg/ml, GPR158: RGS7: Gβ5:4:1:1) by electroporation (Maxcyte). […] Before Glycine treatment, baseline fluorescence intensity was recorded using a fluorescence intensity module (FI Ex: 485 nm, Em: 520 nm) in Pherastar FSX microplate reader (BMG Labtech) followed by forskolin treatment for 15 min. Subsequently, the cells were treated with 500 μM Gly and fluorescence intensity was recorded. […]
The cADDIS assay for Gαi results in increase in fluorescence when CAMP is decreasing in the cells after drug treatment.
For orientation: Cyclic AMP is a second messenger, typically raised through Gs and lowered through Gi signalling.

In the case of `NCC(=O)O` [glycine], the “cADDIS fluorescence change (cAMP decrease)” value was “significant increase in fluorescence”.

Source of the values: patent publication US20260376293A1, “METHODS FOR STUDYING GPR158 PHARMACOLOGY AND IDENTIFICATION OF ITS LIGANDS” (UNIVERSITY OF FLORIDA RESEARCH FOUNDATION, INCORPORATED, priority 2022, published 2026).
